pIC50: −log10 of the molar value.
How the values were obtained:
[1] = system: Stat3; experiment: IL-6-induced phosphorylation of Stat3 (tyrosine-705, serine-727) in HepG2 cells, immunoprecipitation/Western blot; format: cell-based, human; conditions: HepG2, IL-6 50 ng/ml; all concentrations tested, up to 16 μg/ml, equivalent to 165 μM
Excerpt: A crucial step in IL-6-dependent intracellular signal transduction is the phosphorylation of tyrosine-705 in Stat3 and tyrosine-701 in Stat1. […] However, inhibitors which inhibit the Stat3 and Stat1 phosphorylation also have crucial effects on other signal cascades, and therefore pharmaceutically usable inhibitors of IL-6-dependent gene expression should, in the concentration range in which they display their pharmacological effect, affect the Stat3 or Stat1 phosphorylation only slightly or not at all.
Seed out HepG2 cells in Petri dishes (diameter: 10 cm) (OptiMEM medium with 10% fetal calf serum and penicillin/streptomycin (100 iu) cell density: 5×10^5 cell/ml). Incubate in a moist atmosphere with 5% CO2 at 37° C. for 24 h. Replace medium by fresh OptiMEM medium with 0.5% fetal calf serum and penicillin/streptomycin (100 iu) and incubate for a further 48 h. Replace medium by fresh OptiMEM medium with 0.5% fetal calf serum and penicillin/streptomycin (100 iu), add test substances in various concentrations, and incubate for 60 min. 5 μl of the substances dissolved in ethanol, or only ethanol (controls), were added per mixture (10 ml). Induce cells by adding IL-6 (final concentrations 50 ng/ml).
After 20 min. remove medium and wash cell lawn twice wtih 1.5 ml of ice-cold PBS (137 mM NaCl, 2.7 mM KCl, 8.1 mM Na2HPO4×2H2O, 1.5 mM KH2PO4) each time. […]

[2] = system: B16F10; experiment: Growth inhibition test (MTT), cytotoxic properties on tumour cell lines; format: cell-based; conditions: Mus musculus, B16-F10, 144 h, day 6, read-out: cytotoxic effect IC50
Experimental: (§1) The human colon cell lines SW 480 and HT 29 (ATCC Nos. CCL 228 and HBT-38), the mouse melanoma cell line B16F10 and the human prostate tumour cell lines LNCaP-FGC, PC-3 and DU 145 (ATCC No. CRL-10995, CRL-1435, HTB-81) were grown in RPMI 1640 medium with addition of 10% FCS in Roux dishes. This was followed by trypsinization and taking up in RPMI plus 10% FCS to a cell count of 50 000 cell/ml. 100 μl of cell suspension/well were put in a 96-microwell plate and incubated in a CO2 incubator at 37° C. for 1 day. A further 100 μl of RPMI medium and 1 μl of DMSO with galiella lactone were then added. The growth was monitored after day 6. For this purpose, 40 μl of MTT solution (3-(4,5-dimethylthiazol-2-yl)-2,5-diphenyltetrazolium bromide) with an initial concentration of 5 mg/ml of H2O were added to each microwell. Incubation took place in a CO2 incubator at 37° C. for 5 hours. The medium was then separated off, and 100 μl of i-propanol/well were added. After shaking with 100 μl of H2 O for 30 min, the extinction at 540 nm was measured with a Titertek Multiscan MCC/340 (flow).
(§2) The cytotoxic effect is indicated in the table as IC50 (galiella lactone concentration in μM) for the various tumour cell lines: […]

[3] = system: HT 29; experiment: as above; format: cell-based; conditions: Homo sapiens, HT-29, 144 h; HAT29, MTT, day 6; read-out: cytotoxic effect IC50
Experimental: as §1, §2

[4] = system: DU 145; experiment: as above; format: cell-based; conditions: Homo sapiens, DU-145, 144 h; DU145, MTT, day 6; read-out: cytotoxic effect IC50
Experimental: as §1, §2

[5] = system: LNCaP-FGC; experiment: as above; format: cell-based; conditions: Homo sapiens, 144 h, day 6, read-out: cytotoxic effect IC50
Experimental: as §1, §2

[6] = system: PC-3; experiment: as above; format: cell-based; conditions: Homo sapiens, 144 h; PC-3, MTT, day 6; read-out: cytotoxic effect IC50
Experimental: as §1, §2

[7] = system: SW 480; experiment: as above; format: cell-based; conditions: Homo sapiens, 144 h; SW480, MTT, day 6; read-out: cytotoxic effect IC50
Experimental: as §1, §2

In the case of C[C@H]1C=C2C(=O)O[C@H]3CC[C@@H](C1)[C@@]23O [galiella lactone], the “effect on the phosphorylation of Stat3” value [1] was “no effect”, the pIC50 [2] was 5.52 and the pIC50 [3] was 5.30. It also gave a pIC50 [4] of 5.35, a pIC50 [5] of 5.70 and a pIC50 [6] of 5.40. It also gave a pIC50 [7] of 5.30.

Reference: patent US6512007B1, “Use of galiella lactone” (Bayer Aktiengesellschaft, priority 2000, dated 2003)
